Measurements as given in patent US20200339537A1, “NOVEL COMPOUND AS INHIBITOR AGAINST BINDING OF PF34 PROTEIN TO NEDD4-1 PROTEIN AND USE THEREOF” (ENHANCEDBIO INC., priority 2017, published 2020).

Legend:
[1] = target: T1, binding between p34 protein and NEDD4-1 protein (Homo sapiens, UniProt P46934+Q9UHV2); assay: Inhibitory activity on binding between p34 and NEDD4-1, FRET (HTRF) assay; details: pH 7.4, compound 10 μM; 1×PBS pH 7.4, 0.1% BSA, 2% DMSO; 384-well
T1 construct: FLAG or 6xHis (known only from the detection antibodies)
T1 sequence (P46934 1-1319): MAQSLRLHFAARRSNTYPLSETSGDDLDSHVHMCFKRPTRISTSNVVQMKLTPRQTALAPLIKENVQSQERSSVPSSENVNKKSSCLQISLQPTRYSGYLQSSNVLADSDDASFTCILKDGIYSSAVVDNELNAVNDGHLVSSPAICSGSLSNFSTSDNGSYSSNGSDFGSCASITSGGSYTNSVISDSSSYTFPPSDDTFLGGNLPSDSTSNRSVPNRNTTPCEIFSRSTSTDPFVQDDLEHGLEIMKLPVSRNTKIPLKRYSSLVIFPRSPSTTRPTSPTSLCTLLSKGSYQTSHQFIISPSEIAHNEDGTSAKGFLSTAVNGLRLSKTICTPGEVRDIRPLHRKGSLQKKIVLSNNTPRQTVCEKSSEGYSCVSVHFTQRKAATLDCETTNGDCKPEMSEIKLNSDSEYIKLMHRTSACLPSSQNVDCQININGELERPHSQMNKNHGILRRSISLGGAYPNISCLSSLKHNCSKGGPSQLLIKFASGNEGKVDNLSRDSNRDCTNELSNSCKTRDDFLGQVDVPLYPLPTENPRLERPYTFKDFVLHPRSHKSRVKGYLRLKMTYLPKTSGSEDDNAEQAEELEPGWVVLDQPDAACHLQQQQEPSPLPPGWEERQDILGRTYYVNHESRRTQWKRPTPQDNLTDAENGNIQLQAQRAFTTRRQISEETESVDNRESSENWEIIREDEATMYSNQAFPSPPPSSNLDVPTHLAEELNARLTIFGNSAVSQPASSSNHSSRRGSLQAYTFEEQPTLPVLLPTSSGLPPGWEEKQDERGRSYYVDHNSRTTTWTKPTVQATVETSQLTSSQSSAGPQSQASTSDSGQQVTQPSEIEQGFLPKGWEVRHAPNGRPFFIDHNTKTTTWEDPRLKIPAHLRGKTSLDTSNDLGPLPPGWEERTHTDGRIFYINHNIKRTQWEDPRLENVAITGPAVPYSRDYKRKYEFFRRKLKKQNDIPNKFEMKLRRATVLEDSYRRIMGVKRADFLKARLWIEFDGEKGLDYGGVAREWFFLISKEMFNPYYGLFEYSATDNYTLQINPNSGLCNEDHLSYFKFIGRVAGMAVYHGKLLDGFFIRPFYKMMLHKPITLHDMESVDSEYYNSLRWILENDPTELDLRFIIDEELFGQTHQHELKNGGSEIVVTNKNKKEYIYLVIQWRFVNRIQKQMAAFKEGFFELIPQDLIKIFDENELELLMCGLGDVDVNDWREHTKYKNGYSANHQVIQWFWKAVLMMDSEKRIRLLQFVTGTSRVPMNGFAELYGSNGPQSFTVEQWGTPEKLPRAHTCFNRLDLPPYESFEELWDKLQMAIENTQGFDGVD
T1 sequence (Q9UHV2 1-236): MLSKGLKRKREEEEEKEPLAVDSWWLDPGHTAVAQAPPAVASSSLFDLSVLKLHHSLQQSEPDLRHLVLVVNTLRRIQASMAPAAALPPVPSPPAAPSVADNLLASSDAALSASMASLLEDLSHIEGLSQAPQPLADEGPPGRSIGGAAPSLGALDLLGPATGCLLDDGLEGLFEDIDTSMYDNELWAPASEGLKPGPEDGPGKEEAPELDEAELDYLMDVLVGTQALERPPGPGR
Experimental: Inhibitory activity of the compound on binding between p34 and NEDD4-1 was evaluated using p34 protein and NEDD4-1 protein based on the HTRF technology developed by Cisbio. In this assay, a fluorescence resonance energy transfer (FRET) signal was measured in the presence of terbium-labeled anti-FLAG antibody and d2-labeled anti-6XHis antibody. Experiments were performed in 384-well plates under a condition of 1×PBS pH 7.4, 0.1% BSA, and 2% DMSO. A background signal was measured in the absence of the p34-NEDD4-1 proteins, and a non-inhibiting signal was measured with addition of only a solvent (2% DMSO). […] Subsequently, inhibitory activity of the compound on p34-NEDD4-1 was calculated in %.

[2] = system: PTEN (lipid phosphatase activity) in human colon cancer cell line SW620; assay: cells; assay type: cell-based; details: Homo sapiens, SW-620, 48 h, compound 5 μM, PTEN immunoprecipitation, diC8-PIP3 substrate, Biomol Green, read-out: PTEN activity (relative fold @5 μM)

Compound | inhibition at 10 µM [1] [%] | fold induction at 5 µM [2]
O=C(NCc1cncs1)C1CCN(Cc2c[nH]c3ccc(C(F)(F)F)cc23)CC1 [Example 31] | 58.6 | 1.5
O=C(NCc1nc2ccccc2o1)C1CCN(Cc2c[nH]c3ccc(C(F)(F)F)cc23)CC1 [Example 32] | 61.1 | 1.8
O=C(NC(Cc1ccccc1)c1nc2ccccc2[nH]1)C1CCN(Cc2c[nH]c3ccc(C(F)(F)F)cc23)CC1 (stereo not drawn) [Example 33] | 41.2 | 2.5
CC(NC(=O)C1CCN(Cc2c[nH]c3ccc(C(F)(F)F)cc23)CC1)c1nc2ccccc2[nH]1 (stereo not drawn) [Example 34] | 59.6 | 1.9
CCC(NC(=O)C1CCN(Cc2c[nH]c3ccc(C(F)(F)F)cc23)CC1)c1nc2ccccc2[nH]1 (stereo not drawn) [Example 35] | 45.5 | 1.5
O=C(NCc1nc2cc(F)ccc2[nH]1)C1CCN(Cc2c[nH]c3ccc(C(F)(F)F)cc23)CC1 [Example 37] | 39.4 | 1.5
O=C(NCc1nc2cc(F)c(F)cc2[nH]1)C1CCN(Cc2c[nH]c3ccc(C(F)(F)F)cc23)CC1 [Example 39] | 37.7 | 1.6
O=C(NCc1nc2ccccc2[nH]1)C1CCN(Cc2c[nH]c3ccc(Cl)cc23)CC1 [Example 45] | 33.8 | 2.8
O=C(NCc1nc2ccccc2[nH]1)C1CCN(Cc2c[nH]c3ccccc23)CC1 [Example 61] | 52.3 | 2.1
O=C(Nc1ccc(C(F)(F)F)cc1)N1CCN(Cc2ccc3[nH]ccc3c2)CC1 [Example 68] | 49.6 | 1.8
Cc1ccc2[nH]c(CNC(=O)N3CCN(Cc4c[nH]c5ccc(Cl)cc45)CC3)nc2c1 [Example 71] | 33.7 | 1.8
O=C(Nc1ccccn1)N1CCN(Cc2ccc3[nH]ccc3c2)CC1 [Example 72] | 55.5 | 1.9
O=C(Nc1ncccn1)N1CCN(Cc2ccc3[nH]ccc3c2)CC1 [Example 73] | 53.5 | 2.1
O=C(Nc1ccccc1)N1CCN(Cc2ccc3[nH]ccc3c2)CC1 [Example 77] | 35.3 | 1.8
O=C(NCc1nccs1)N1CCN(Cc2n[nH]c3ccccc23)CC1 [Example 79] | 54.4 | 2.2
O=C(NCc1nccs1)N1CCN(Cc2ccc3[nH]ccc3c2)CC1 [Example 80] | 49.7 | 2.1
O=C(NCc1nccs1)N1CCN(Cc2c[nH]c3ccc(F)cc23)CC1 [Example 81] | 50.7 | 2.2
O=C(NCc1nccs1)N1CCN(Cc2ccc3cc[nH]c3c2)CC1 [Example 82] | 47.2 | 1.7
O=C(NCc1cncs1)N1CCN(Cc2n[nH]c3ccccc23)CC1 [Example 83] | 41.3 | 1.9
O=C(NCc1cncs1)N1CCN(Cc2ccc3[nH]ccc3c2)CC1 [Example 84] | 44.1 | 2.9
O=C(NCc1cncs1)N1CCN(Cc2c[nH]c3ccc(Cl)cc23)CC1 [Example 85] | 44 | 1.9
O=C(NCc1cncs1)N1CCN(Cc2c[nH]c3ccc(F)cc23)CC1 [Example 86] | 41.6 | 2
O=C(NCc1cncs1)N1CCN(Cc2ccc3cc[nH]c3c2)CC1 [Example 87] | 48.7 | 1.9
Cc1[nH]c2ccc(CN3CCN(C(=O)NCc4cncs4)CC3)cc2c1C [Example 89] | 31.5 | 2
